{"source": "paper PMC5278571", "about": "“Optimal doses of caspofungin during continuous venovenous hemodiafiltration in critically ill patients” (Critical Care, 2017)", "origin": "cited, not measured here", "key": {"[1]": {"test_system": "Candida and Aspergillus spp., including Candida parapsilosis", "settings": "published MIC90s; cited from earlier work", "experimental": "(§1) Taking into account a MIC of 0.1 mg/L [4], and using the target pharmacokinetics/pharmacodynamics (PK/PD) described for micafungin, we would have reac ..."}, "Candida": {"test_system": "Candida", "settings": "MIC taken for the PK/PD target calculation; cited from earlier work", "experimental": "as §1"}}, "data": [{"smiles": "CC[C@H](C)C[C@H](C)CCCCCCCCC(=O)N[C@H]1C[C@@H](O)[C@@H](NCCN)NC(=O)[C@@H]2[C@@H](O)CCN2C(=O)[C@H]([C@H](O)CCN)NC(=O)[C@H]([C@H](O)[C@@H](O)c2ccc(O)cc2)NC(=O)[C@@H]2C[C@@H](O)CN2C(=O)[C@H]([C@@H](C)O)NC1=O", "note": "[caspofungin]", "values": [{"measurement": "MIC90", "setting": "[1]", "result": 2, "unit": "µg/mL"}, {"measurement": "MIC", "setting": "Candida", "result": 0.1, "unit": "µg/mL"}]}]}
